What was measured:
[1] = system: Sod1 mutant mice; assay type: in vivo
From the text: Values represent means±SEMs.
Subjects were weighed and tested for Grip Strength, and assigned Clinical and Neurological scores three times a week beginning at P90 and five times a week beginning at P100. The table below summarizes the experimental design of the study.
The grip strength test assesses motor function and control of the fore- and hindpaws. Mice were allowed to grab the bars on the Chatillon DFIS-10 digital force gauge (Largo, Fla.), while being gently pulled parallel away from the bars by the tail. The maximum force measured prior to release of the subject's paw from the bar was recorded.
Animals were scored using the scoring system tabulated below.

[2] = system: HSP70; assay: HSP70 induction in rat hippocampus with or without kainic acid injection (immunohistochemistry, western blot); assay type: in vivo; conditions: KA stereotactically injected in hippocampus; localized in the injection site
Protocol: Stereotactic injections of Kainic acid into rat hippocampus tissues led to increased damages in neurons. […] Under this condition, neurons and HSP70 expression was stained by immunohistochemistry techniques. HSP70 expression was induced in a very specific area only that KA was injected. The induced area was not stained by HSP70 antibody when KA was not injected, but CNS-102 was dosed.
HSP70 induction by dosing CNS-102 in the absence of the KA injection was limited in western blot experiments using hippocampus lysates. 120% or 130% of HSP70 expression could be seen by comparing those of vehicle dosing control experiments.

[3] = system: Mouse Neuro2A neuroblastoma cells; assay: Neuro2A cells with neurites after GGTI-298 (Example 16); assay type: cell-based; conditions: 10 μM
Protocol: Mouse Neuro2A neuroblastoma cells were cultured in DMEM supplemented with 10% FBS for 24 hrs. […] Then differentiation was induced by retinoic acid in DMEM supplemented with 2% FBS. The cell culture was incubated with a Geranylgeranyl Transferase inhibitor, GGTI-298. After 24 hrs incubation, cells with neurites were counted.

[4] = system: HSP60; assay: HSP60 gene expression in rat brain tissue, qRT-PCR; assay type: in vivo; conditions: 12 mg/kg oral
Protocol: […] Expression of selected HSPs was detected using qRT-PCR with expression of the GAPDH gene used as the control. To represent the effect of CNS-102 on HSP expression, mean fold change is calculated as CNS-102 treated/PBS treated for each HSP at each time point.

[5] = system: HSP70; assay: HSP70 expression in neuro2A cells, western blot; assay type: cell-based, mouse; conditions: for HSP70 western signal (absence of compounds = 1.00): 48 hours, GGTI-298
Protocol: Differentiation was induced and cells incubated with geranylgeranyl transferase I inhibitor, GGTI-298. Cells were harvested and lysates were prepared and analyzed by western blot for HSP70 and HSP90. Western signals in the absence of the compounds were normalized as 1.00.

[6] = system: Murine neuro2A neuroblastoma cells; assay: Neurite outgrowth of neuro2A cells with GGTI-298 (Example 30); assay type: cell-based, mouse
Protocol: Differentiation was induced and cells incubated with geranylgeranyl transferase I inhibitor, GGTI-298. After 24 h digital images were taken and neurite outgrowth was quantified. The comparisons of the neuroprotective effect of these three compounds are shown below.
The estimated mean log10 counts, from five replicate wells for each treatment group were calculated by PROC GLM in SAS assuming a pooled estimate of variation.
The estimated mean log 10 counts from five replicate wells for each treatment group were calculated by PROC GLM in SAS assuming a pooled estimate of variation.
Differences in mean log(counts) between treatments for each concentration were calculated using PROC GLM in SAS. The p-value given is for the comparison of the estimated difference to zero, the expected difference value for no treatment effect. The anti-log of the differences represent the estimated ratio of counts (relative effect on inhibition) and are tabulated below along with the lower and upper 95% confidence intervals.

[7] = system: Neuro2A cells; assay: Neuro2A cells that extended neurites, with GGTI-298 (Example 18); assay type: cell-based; conditions: 0.1-1 μM; vehicle 0.0-0.20
From the text: After differentiation was induced, cells that extended neurites were counted.

[8] = 10 nM, CNS-101/CNS-102 experiment
[9] = 100 nM, CNS-101/CNS-102 experiment
[10] = 100 nM, CNS-102/CNS-103 experiment
[11] = 1000 nM, CNS-101/CNS-102 experiment
[12] = 1000 nM, CNS-102/CNS-103 experiment
[13] = 10000 nM, CNS-101/CNS-102 experiment

CC(=O)CC/C=C(\C)CC/C=C(\C)CC/C=C(\C)CCC=C(C)C [CNS-102]
clinical and neuroscore testing ([1]; Sod1 mutant mice, CNS-102 12 mg/kg or Riluzole 8 mg/kg daily oral, vs vehicle): tended to outperform group D | neuroscore testing ([1]; Sod1 mutant mice, several timepoints around and after P100, vs vehicle): significantly outperforms group D | blood and neurology examinations ([1]; more than two months of once-daily oral 12 mg/kg): no abnormalities in blood and neurology examinations | body weight ([1]; wild type mice, group F (CNS-102) vs group E (vehicle)): no noticeable differences | toxicity or behavioral abnormalities ([1]; wildtype animals dosed with vehicle versus CNS-102 12 mg/kg daily): does not lead to obvious toxicity or behavioral abnormalities | HSP70 induction [2]: strong induction of HSP70 | Mean of cell numbers (cells with neurites) [3]: 0.738 Arbitrary units | HSP60 mean fold change (CNS-102 treated/PBS treated), mean ± SD ([4]; 24 h): 1.26 ± 0.07 | HSP60 mean fold change (CNS-102 treated/PBS treated), mean ± SD ([4]; 48 h): 0.89 ± 0.08 | HSP60 mean fold change (CNS-102 treated/PBS treated), mean ± SD ([4]; 72 h): 1.72 ± 0.07 | HSP60 mean fold change (CNS-102 treated/PBS treated), mean ± SD ([4]; 96 h): 1.57 ± 0.16 | HSP70 western signal (absence of compounds = 1.00) ([5]; 100 nM): 1.38 | HSP70 western signal (absence of compounds = 1.00) ([5]; 1 μM): 2.05 | HSP70 western signal (absence of compounds = 1.00) ([5]; 10 μM): 2.14 | induction of HSP70 expression ([5]; various concentrations): induce expression of HSP70 | Ratio % of neurite outgrowth, CNS-102 to CNS-101 ([6]; 10 nM): 113.6% | Protection % [6, 8]: 16.6% | Median Counts (cells with neurite outgrowth) ([6]; 10 nM, CNS-101/CNS-102 experiment, no inhibition 95.5, PBS 21.5): 33.8 | ratio of counts relative to no inhibition [6, 8]: 0.354 | Ratio % of neurite outgrowth, CNS-102 to CNS-101 ([6]; 100 nM): 112.1% | Ratio % of neurite outgrowth, CNS-102 to CNS-103 ([6]; 100 nM): 114.3% | Protection % [6, 9]: 29.6% | Median Counts (cells with neurite outgrowth) ([6]; 100 nM, CNS-101/CNS-102 experiment, no inhibition 95.5, PBS 21.5): 43.4 | ratio of counts relative to no inhibition [6, 9]: 0.454 | Protection % [6, 10]: 35.9% | Median Counts (cells with neurite outgrowth) ([6]; 100 nM, CNS-102/CNS-103 experiment, no inhibition 60.3, PBS 18.5): 33.5 | ratio of counts relative to no inhibition [6, 10]: 0.556 | Ratio % of neurite outgrowth, CNS-102 to CNS-101 ([6]; 1000 nM): 122.7% | Ratio % of neurite outgrowth, CNS-102 to CNS-103 ([6]; 1000 nM): 83.0% | Protection % [6, 11]: 39.9% | Median Counts (cells with neurite outgrowth) ([6]; 1000 nM, CNS-101/CNS-102 experiment, no inhibition 95.5, PBS 21.5): 51.0 | ratio of counts relative to no inhibition [6, 11]: 0.534 | Protection % [6, 12]: 12.7% | Median Counts (cells with neurite outgrowth) ([6]; 1000 nM, CNS-102/CNS-103 experiment, no inhibition 60.3, PBS 18.5): 23.8 | ratio of counts relative to no inhibition [6, 12]: 0.395 | Ratio % of neurite outgrowth, CNS-102 to CNS-101 ([6]; 10000 nM): 137.8% | Protection % [6, 13]: 22.6% | Median Counts (cells with neurite outgrowth) ([6]; 10000 nM, CNS-101/CNS-102 experiment, no inhibition 95.5, PBS 21.5): 38.2 | ratio of counts relative to no inhibition [6, 13]: 0.400 | maximum protection ([6]; CNS-101/CNS-102 experiment (FIG. 4A)): ~40% | maximum protection ([6]; CNS-102/CNS-103 experiment (FIG. 4B)): ~36% | Mean of cell numbers (cells that extended neurites) [7]: 0.45-0.65 Arbitrary units
